Data from article PMC6429507, “Triterpene-Based Carboxamides Act as Good Inhibitors of Butyrylcholinesterase” (Molecules, 2019).
Where two headings read alike, the source gives them in different places.

Key:
[1] = Solubility under the conditions of the assay; conditions: Ellman's assay conditions
Method: (§1) In this study, carboxamides with different triterpenoic backbones (ursolic, oleanolic, maslinic, betulinic, and platanic acids), and various amine residues (Scheme 1), were investigated.
(§2) 3.1 Preparation of the solutions
(§3) Preparation of 50 mM Tris-HCl buffer solutions: Tris(hydroxymethyl)-aminomethane (606 mg) was dissolved in bidestilled water (100 mL) and adjusted with HCl to a pH of 8.0 ± 0.1. Buffers were freshly prepared and stored in the refrigerator. AChE solution 2.005 U/mL: the enzyme (271 U/mg, 0.037 mg) was dissolved in freshly prepared buffer pH 8.0 (5 mL) containing NaN3 (0.98 mg). BChE solution 2.040 U/mL: the enzyme (7.54 U/mg, 1.353 mg) was dissolved in freshly prepared buffer pH 8.0 (5 mL) containing NaN3 (0.98 mg). DTNB solution 3 mM: DTNB (23.8 mg) was dissolved in freshly prepared buffer pH 8.0 (20 mL) containing NaCl (116.8 mg) and MgCl2 (38.0 mg). ATChI solution 15 mM:
(§4) ATChI (43.4 mg) was dissolved in bidestilled water (10 mL). All solutions were stored in Eppendorf caps in the refrigerator or in the freezer, if necessary. The pure compounds were […]
(§5) dissolved in bidistilled water. The final concentrations for the enzymatic assay were obtained by diluting the stock solution with bidistilled water.
(§6) A mixture of the DTNB solution (125 µL), enzyme solution (25 µL) and compounds solutions (25 µL, 3 different concentrations and once blank water) was prepared and incubated at 30 °C for 20 min. The substrate (25 µL, 4 different concentrations) was added to start the enzymatic reaction. The absorbance data (l = 415 nm) was recorded under a controlled temperature of 30 °C for 30 min at 1 min intervals. The substrate concentrations in the test were as follows: […]
(§7) determined as the quotient of the slopes (compound divided by blank) of the linear ranges.
(§8) The used substrate concentration was 0.625 mM. The absorbance data was recorded under a controlled temperature of 30 °C for 10 min.

[2] = target: T1, butyrylcholinesterase (BChE, equine serum) (Equus caballus, UniProt P81908); test: Ellman's assay, butyrylcholinesterase inhibition; format: biochemical; conditions: for Grade of inhibition in% BChE: mean ± SE
T1 construct: Butyrylcholinesterase (from equine serum) was purchased from Fluka; purchased Fluka; host or cells: equine serum
Text: as §1
(§9) A TECAN SpectraFluorPlus working in the kinetic mode and measuring the absorbance at λ = 415 nm was used for the enzymatic studies. Acetylcholinesterase (from Electrophorus electricus), 5,5′-dithiobis-(2-nitrobenzoic acid) (DTNB) and acetylthiocholine iodide were purchased from Sigma. Butyrylcholinesterase (from equine serum) was purchased from Fluka. Preparation of the solutions, assay procedure, as well as molecular modeling conditions can be found in the Supplementary Materials.
as §2, §3, §4, §5, §6, §7, §8

[3] = target: acetylcholinesterase (AChE, electric eel) (Electrophorus electricus, UniProt O42275); conditions: for Grade of inhibition in% AChE / Ki' (uncompetitive inhibition) / Ki: mean ± SE; for Type of Inhibition / Ki' (uncompetitive inhibition) / Ki: AChE, electric eel; for Ki: read-out: Ki (competitive inhibition)
Text: as §1, §9, §2, §3, §4, §5, §6, §7, §8

[4] = BChE, equine serum, Ellman's assay
[5] = BChE, equine serum, Ellman's assay, read-out: Ki (competitive inhibition)
[6] = experimental Ki restated in docking Table 3, unit inferred, read-out: Ki

Sequence of acetylcholinesterase (AChE, electric eel) (O42275 24-633): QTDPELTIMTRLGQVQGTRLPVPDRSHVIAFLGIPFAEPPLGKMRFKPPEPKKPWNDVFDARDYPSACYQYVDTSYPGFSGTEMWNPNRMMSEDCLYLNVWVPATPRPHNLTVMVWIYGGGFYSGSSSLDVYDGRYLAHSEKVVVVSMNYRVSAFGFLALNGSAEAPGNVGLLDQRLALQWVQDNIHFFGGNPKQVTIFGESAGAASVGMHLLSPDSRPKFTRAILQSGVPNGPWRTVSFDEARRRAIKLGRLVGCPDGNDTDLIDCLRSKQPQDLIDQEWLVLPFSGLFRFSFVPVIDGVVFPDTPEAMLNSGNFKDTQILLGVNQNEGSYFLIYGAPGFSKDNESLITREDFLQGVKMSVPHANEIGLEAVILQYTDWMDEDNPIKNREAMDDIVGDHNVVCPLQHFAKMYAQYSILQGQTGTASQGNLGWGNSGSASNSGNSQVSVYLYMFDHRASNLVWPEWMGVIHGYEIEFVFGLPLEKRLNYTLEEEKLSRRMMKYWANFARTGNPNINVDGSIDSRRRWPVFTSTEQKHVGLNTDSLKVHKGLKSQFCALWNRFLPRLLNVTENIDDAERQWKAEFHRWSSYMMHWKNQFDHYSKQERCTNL
T1 sequence (P81908 whole entry): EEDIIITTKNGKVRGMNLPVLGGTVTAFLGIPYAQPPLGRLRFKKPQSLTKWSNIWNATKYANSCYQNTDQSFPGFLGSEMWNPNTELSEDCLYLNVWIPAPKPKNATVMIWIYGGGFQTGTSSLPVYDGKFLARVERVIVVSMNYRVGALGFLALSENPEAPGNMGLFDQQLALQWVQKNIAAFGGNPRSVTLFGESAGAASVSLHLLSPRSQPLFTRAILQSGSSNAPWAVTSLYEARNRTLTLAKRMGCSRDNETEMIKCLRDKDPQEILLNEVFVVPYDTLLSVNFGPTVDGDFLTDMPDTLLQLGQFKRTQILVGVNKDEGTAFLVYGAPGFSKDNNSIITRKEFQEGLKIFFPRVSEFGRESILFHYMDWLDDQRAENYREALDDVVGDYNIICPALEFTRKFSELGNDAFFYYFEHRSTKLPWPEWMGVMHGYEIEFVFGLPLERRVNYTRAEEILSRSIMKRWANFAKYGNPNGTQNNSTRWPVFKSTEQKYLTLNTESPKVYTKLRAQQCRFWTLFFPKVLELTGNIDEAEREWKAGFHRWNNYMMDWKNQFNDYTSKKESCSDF

Structure (SMILES) | Type of Inhibition ([2]; BChE, equine serum) | Ki′ (uncompetitive inhibition) [2, 4] [µM] | Ki [2, 5] [nM] | Grade of inhibition in% BChE ([2]; c = 10 µM) [%] | Grade of inhibition in% AChE ([3]; c = 10 µM) | Grade of inhibition in% BChE ([2]; c = 30 µM) [%] | Grade of inhibition in% AChE ([3]; c = 30 µM) [%] | further results
CC(=O)OC1CCC2(C)C(CCC3(C)C2CC=C2C4CC(C)(C)CCC4(C(=O)NCCN(C)C)CCC23C)C1(C)C (stereo not drawn) [Compound 22, (3β)-N-[2-(Dimethylamino)-ethyl]-3-acetyloxy-olean-12-en-28-amide] | – | – | – | – | – | – | – | solubility under the conditions of the assay [1]: n.sol.
CC(=O)OC1CC2(C)C(CCC3(C)C2CC=C2C4CC(C)(C)CCC4(C(=O)NCCN(C)C)CCC23C)C(C)(C)C1OC(C)=O (stereo not drawn) [Compound 23, (2α,3β)-N-[2-(Dimethylamino)ethyl]-2,3-diacetyloxy-olean-12-en-28-amide] | – | – | – | – | – | – | – | solubility under the conditions of the assay [1]: n.sol.
C=C(C)C1CC[C@]2(C(=O)NCCN3CCCC3)CC[C@]3(C)C(CCC4[C@@]5(C)CC[C@H](OC(C)=O)C(C)(C)C5CC[C@]43C)C12 (stereo partly drawn) [Compound 34] | mixed-type | > 5 | 390 ± 40 | 71.56 ± 0.54 | 44.15 ± 0.32% | – | – | Ki [2, 6]: 390 nM
CC(=O)O[C@H]1CC[C@]2(C)[C@H]3CC[C@@H]4[C@H]5[C@H](C(C)=O)CC[C@]5(C(=O)NCCN5CCCC5)CC[C@@]4(C)[C@]3(C)CC[C@H]2C1(C)C [Compound 35, (3β)-N-(2-pyrrolidin-1-ylethyl)-3-acetyloxy-20-oxo-30-norlupan-28-amide] | mixed-type | 2.38 ± 0.48 | 70 ± 10 | – | – | 94.60 ± 0.02 | 19.97 ± 0.13 | Ki [2, 6]: 70 nM; selectivity F (percent inhibition for AChE divided by percent inhibition for BChE) ([2]; towards BChE): ≈ 0.21
C[C@@H]1CC[C@]2(C(=O)NCCN3CCCC3)CC[C@]3(C)C(=CCC4[C@@]5(C)CC[C@H](O)C(C)(C)C5CC[C@]43C)C2[C@H]1C (stereo partly drawn) [Compound 36] | mixed-type | 2.23 ± 0.12 | 470 ± 80 | – | – | 85.66 ± 0.10 | 31.45 ± 0.60 | –
CC1(C)CCC2(C(=O)NCCN3CCCC3)CCC3(C)C(=CCC4C5(C)CCC(O)C(C)(C)C5CCC43C)C2C1 (stereo not drawn) [Compound 37, (3β)-N-(2-Pyrrolidin-1-ylethyl)-3-hydroxy-olean-12-en-28-amide] | mixed-type | > 50 | 550 ± 20 | 74.50 ± 0.93 | 10.04 ± 1.70% | – | – | –
CC1(C)CCC2(C(=O)NCCN3CCCC3)CCC3(C)C(=CCC4C5(C)CC(O)C(O)C(C)(C)C5CCC43C)C2C1 (stereo not drawn) [Compound 38, (2α,3β)-N-(2-Pyrrolidin-1-ylethyl)-2,3-dihydroxy-olean-12-en-28-amide] | mixed-type | 14.15 ± 2.42 | 2060 ± 30 | – | – | 77.49 ± 0.10 | 23.33 ± 0.22 | –
C=C(C)C1CC[C@]2(C(=O)NCCN3CCCC3)CC[C@]3(C)C(CCC4[C@@]5(C)CC[C@H](O)C(C)(C)C5CC[C@]43C)C12 (stereo partly drawn) [Compound 39] | mixed-type | > 9 | 3240 ± 580 | – | – | 60.48 ± 0.05 | 58.81 ± 0.80 | –
CC(=O)[C@@H]1CC[C@]2(C(=O)NCCN3CCCC3)CC[C@]3(C)[C@H](CC[C@@H]4[C@@]5(C)CC[C@H](O)C(C)(C)[C@@H]5CC[C@]43C)[C@@H]12 [Compound 40] | mixed-type | > 10 | 450 ± 10 | – | – | 89.15 ± 0.44 | 33.06 ± 0.45 | Type of Inhibition [3]: mixed-type; Ki' (uncompetitive inhibition) [3]: 23.63 ± 0.39 µM; Ki [3]: 27.9 ± 2.99 µM
CC(=O)O[C@H]1CC[C@@]2(C)C(CC[C@]3(C)C2CC=C2C4[C@@H](C)[C@H](C)CC[C@]4(C(=O)NCCN4CCCCC4)CC[C@]23C)C1(C)C (stereo partly drawn) [Compound 41] | – | – | – | – | – | – | – | solubility under the conditions of the assay [1]: n.sol.
CC(=O)OC1CCC2(C)C(CCC3(C)C2CC=C2C4CC(C)(C)CCC4(C(=O)NCCN4CCCCC4)CCC23C)C1(C)C (stereo not drawn) [Compound 42, (3β)-N-(2-Piperidin-1-ylethyl)-3-acetyloxy-olean-12-en-28-amide] | – | – | – | – | – | 53.09 ± 0.14 | 45.57 ± 0.25 | –
CC(=O)OC1CC2(C)C(CCC3(C)C2CC=C2C4CC(C)(C)CCC4(C(=O)NCCN4CCCCC4)CCC23C)C(C)(C)C1OC(C)=O (stereo not drawn) [Compound 43, (2α,3β)-N-(2-Piperidin-1-ylethyl)-2,3-diacetyloxy-olean-12-en-28-amide] | – | – | – | – | – | 53.47 ± 3.47 | 23.30 ± 0.10 | –
C=C(C)C1CC[C@]2(C(=O)NCCN3CCCCC3)CC[C@]3(C)C(CCC4[C@@]5(C)CC[C@H](OC(C)=O)C(C)(C)C5CC[C@]43C)C12 (stereo partly drawn) [Compound 44] | – | – | – | – | – | 33.83 ± 0.43 | 22.78 ± 0.85 | –
CC(=O)O[C@H]1CC[C@]2(C)[C@H]3CC[C@@H]4[C@H]5[C@H](C(C)=O)CC[C@]5(C(=O)NCCN5CCCCC5)CC[C@@]4(C)[C@]3(C)CC[C@H]2C1(C)C [Compound 45, (3β)-N-(2-Piperidin-1-ylethyl)-3-acetyloxy-20-oxo-30-norlupan-28-amide] | mixed-type | 4.88 ± 0.21 | 710 ± 40 | 83.44 ± 1.00 | no inhibition | – | – | –
CC1(C)CC[C@]2(C(=O)NCCN3CCCCC3)CC[C@]3(C)C(=CC[C@@H]4[C@@]5(C)CC[C@H](O)C(C)(C)[C@@H]5CC[C@]43C)[C@@H]2C1 [Compound 47, (3β)-N-(2-Piperidin-1-ylethyl)-3-hydroxy-olean-12-en-28-amide] | mixed-type | 10.42 ± 1.36 | 1570 ± 10 | – | – | 74.89 ± 0.04 | 38.65 ± 0.29 | –
CC1(C)CCC2(C(=O)NCCN3CCCCC3)CCC3(C)C(=CCC4C5(C)CC(O)C(O)C(C)(C)C5CCC43C)C2C1 (stereo not drawn) [Compound 48, (2α,3β)-N-(2-Piperidin-1-ylethyl)-2,3-dihydroxy-olean-12-en-28-amide] | mixed-type | 6.21 ± 0.47 | 2260 ± 50 | 69.30 ± 1.12 | 9.32 ± 0.29% | – | – | –
C=C(C)C1CC[C@]2(C(=O)NCCN3CCCCC3)CC[C@]3(C)C(CCC4[C@@]5(C)CC[C@H](O)C(C)(C)C5CC[C@]43C)C12 (stereo partly drawn) [Compound 49, (3β)-N-(2-piperidin-1-ylethyl)-3-hydroxy-lup-20(29)-en-28-amide] | mixed-type | > 8 | 2520 ± 290 | 66.02 ± 0.70 | 82.72 ± 0.09% | – | – | Type of Inhibition [3]: mixed-type; Ki' (uncompetitive inhibition) [3]: 1.42 ± 0.08 µM; Ki [3]: 1 ± 0.09 µM
CC(=O)[C@@H]1CC[C@]2(C(=O)NCCN3CCCCC3)CC[C@]3(C)[C@H](CC[C@@H]4[C@@]5(C)CC[C@H](O)C(C)(C)[C@@H]5CC[C@]43C)[C@@H]12 [Compound 50, (3β)-N-(2-Piperidin-1-ylethyl)-3-hydroxy-20-oxo-30-norlupan-28-amide] | mixed-type | 3.09 ± 0.03 | 970 ± 40 | 88.37 ± 0.85 | 52.14 ± 1.55% | – | – | –
